# Measured values from patent US20020002294A1, “Estrogenic compounds as antiangiogenic agents” (priority 1997, published 2002).
# Experiments:
# [1] = tested on: 8 human breast cancer cell lines; assay: human tumor cell panel assay in vitro, breast panel; format: cell-based; set-up: key to Most Sensitive Cell Lines in Human Tumor Cell Panel Assay: Breast: Most sensitive cell panes are marked with ✓; conditions: for Most Sensitive Cell Lines in Human Tumor Cell Panel Assay: Breast: 8 cell lines, only MCF-7 and T-47D express estrogen and progesterone receptors; for Tumor Panel: Average log IC50(Molar) against 8 human breast cancer cell lines / IC50: cell panel assay in vitro, two values per cell separated by /; for IC50: Homo sapiens, read-out: Tumor Panel: Average log IC50(Molar) against 8 human breast cancer cell lines (converted)
# Excerpt: (§1) The tubulin activities, breast cancer cell line activities, and the cell panels most sensitive to selected analogs are shown in Tables 3 and 4.
# [2] = tested on: Melanoma cell lines; assay: Human Tumor Cell Panel Assay in vitro, melanoma panel; format: cell-based; set-up: key: Most sensitive cell panes are marked with ✓
# Excerpt: as §1
# [3] = tested on: CNS cell lines; assay: Human Tumor Cell Panel Assay in vitro, CNS panel; format: cell-based; set-up: key: Most sensitive cell panes are marked with ✓
# Excerpt: as §1
# [4] = tested on: tubulin; assay: tubulin activities of 2-ME analogs (Table 3); format: biochemical
# [5] = tested on: MDA-MB-435 estrogen receptor-negative human breast carcinoma cells; assay: In Vivo Tumor Growth Inhibition; set-up: species or system SCID mice
# Description: To determine the antitumor activity of 2-ME and derivatives, SCID mice were s.c. inoculated with 10^6 MDA-MB-435 estrogen receptor-negative human breast carcinoma cells. Treatment was initiated on day 12 when tumor volumes reached 75-100 mm3 in volume. Drugs were suspended in 0.5 g/100 ml of carboxymethylcellulose with sterile glass beads, vortexed for 5 minutes, and administered p.o. in a volume of 0.1 ml. Control mice received 0.1 ml of carboxymethylcellulose p.o. Serial caliper measurements of perpendicular diameters were used to calculate tumor volume using the following: (shortest diameter)^2×(longest diameter)×0.52. T/C was calculated as the volume of treated tumors over the volume of control tumors. A smaller number indicates a greater inhibition of tumor growth.
# [6] = tested on: Renal cell lines; assay: Human Tumor Cell Panel Assay in vitro, renal panel; format: cell-based; set-up: key: Most sensitive cell panes are marked with ✓
# Excerpt: as §1
# [7] = tested on: Ovarian cell lines (especially OVCAR-3); assay: Human Tumor Cell Panel Assay in vitro, ovarian panel; format: cell-based; set-up: key: Most sensitive cell panes are marked with ✓
# Excerpt: as §1
# [8] = tested on: corneal neovascularization; assay: Mouse Corneal Micropocket Assay; format: in vivo, mice; conditions: daily oral, 5 days
# Description: Five- to 7-week-old SCID female mice were obtained from Massachusetts General Hospital (Boston, Mass.), Immunocompetent 7-9-week-old female C57BL/6 mice were obtained from ARCH Technical Services, Children's Hospital (Boston, Mass.). All animal studies were conducted according to protocols approved by the Animal Ethics Committee of Children's Hospital. Animals were anesthetized in a methoxyflurane (Pittman-Moore, Mundelein, Ill.) chamber prior to all procedures and were observed until fully recovered. Animals were sacrificed by a lethal dose of methoxyflurane.
# Mouse Corneal Micropocket Assay To study the effect of microtubule inhibitors on angiogenesis in vivo, a model of angiogenesis in the mouse cornea was used in […] mice as described previously (Kenyon, B. B., Voest, E. E., Chen, C. C., Folkman, J., and D'Amato, R. J. A model of angiogenesis in the mouse cornea. Invest. Ophthalmol. & Visual Sci., 76: 1625-1632, 1996). In brief, after animals were anesthetized, corneal micropockets were created in both eyes with a modified von Graefe cataract knife. Into each pocket, a 0.4 mm ×0.4 mm×0.2 mm sucrose aluminum sulfate (Bukh Meditee, Copenhagen, Denmark) pellet coated with hydron polymer type NCC (IHN Sciences, New Brunswick, N.J.) containing 80 ng of bFGF or 160 ng of human recombinant […] (gift from Reprogenesis, Cambridge, Mass.) was implanted 1.0-1.2 mm from the limbal vessels (bFGF experiments) or 0.5-0.7 mm from the limbus (VEGF experiments). Erythromycin ointment (E. Fougera, Melville, N.Y.) was applied to each operated eye. The sucralfate acts to stabilize the growth factor and to slow its release from the hydron. Before testing each drug in this assay, we found the maximal dose that could be administered daily for 5 consecutive days without producing signs of toxicity (i.e., no hair loss, diarrhea, infection, lethargy, or weight loss). The treated groups received daily oral administration for 5 consecutive days of the stated dosage of 2-ME or a derivative thereof suspended in 0.5 g/100 ml of carboxymethylcellulose.
# Treatment was started on the day of pellet implantation. […] For this purpose, the eyes of the mice were examined by slit-lamp biomicroscopy. Area of corneal neovascularization was calculated using a modified formula for a half-ellipse: Area (mm^2)=[π×clock hours×length (mm)×0.2 mm]. This formula provides the most accurate approximation of the area of neovascularization that grows toward the pellet. (Kenyon, B. B., Voest, E. E., Chen, C. C., Folkman, J., and D'Amato, R. J. A model of angiogenesis in the mouse cornea. Invest. Ophthalmol. & Visual Sci., 76: 1625-1632, 1996).
# [9] = tested on: tubulin; assay: inhibition of tubulin polymerization in vitro (turbidity at 350 nm); format: biochemical; conditions: read-out: IC50 (concentration required to inhibit tubulin polymerization by 50%); mean ± S.D.; method of Example 1
# Description: Anti-mitotic activity can be evaluated by testing the ability of an estradiol derivative to inhibit tubulin polymerization and microtubule assembly in vitro. Microtubule assembly is followed in a Gilford recording spectrophotometer (model 250 or 2400S) equipped with electronic temperature controllers. A reaction mixture (all concentrations refer to a final reaction volume of […]) contains 1.0 M monosodium glutamate (ph 6.6), 1. omg/ml (10 μM) tubulin, 1.0 mM MgCl2, 4% (v/v) dimethylsulfoxide and 20-75μM of a composition to be tested. The 0.24 ml reaction mixtures are incubated for 15 min. at 37° C. and then chilled on ice. After addition of 10p1 2.5mM GTP, the reaction mixture is transferred to a cuvette at 0° C., and a baseline established. At time zero, the temperature controller of the spectrophotometer is set at 37° C. Microtubule assembly is evaluated by increased turbity at 350 nm.
# A. Each reaction mixture (all concentrations refer to the final reaction volume of 0.25 ml) contained 1.0 M monosodium glutamate (pH 6.6), 1.0 mg/ml (10 μM) tubulin, 1.0 mM MgCl2, 4% (v/v) dimethylsulfoxide, and either 0 (curve 1), 20μM (curve 2), 40 μM (curve 3), or 75 μM (curve 4) 2-methoxyestradiol. The 0.24 ml reaction mixtures were incubated for 15 min. at 37° C and chilled on ice. After addition of 10 μl of 2.5 mM GTP the reaction mixtures were transferred to cuvettes held at 0° C., and baselines were established. At time zero the temperature controller was set at 37° C. At the times indicated by the vertical dashed lines the temperature controller was set at the indicated temperatures.
# B. Each reaction mixture contained 0.8 M monosodium glutamate (pH 6.6), 1.2 mg/ml (12 μM) tubulin, 4% (v/v) dimethylsulfoxide, and either 0 (curve 1), 1.0 FM (curve 2), 2.0 ,M (curve 3), 3.0 μM (curve 4), or 4.0 μM (curve 5) 2-methoxyestradiol. The 0.24 ml reaction mixtures were incubated for 15 min. at 26° C. and chilled on ice. After addition of 10μl of 10 mM GTP the reaction mixtures were transferred to cuvettes held at 0° C., and baselines were established. At time zero the temperature controller was set at 26° C. At the time indicated by vertical dashed line the temperature controller was set at 0° C.
# The method is given in Example 1.
# S.D., standard deviation.
# [10] = 150 mg/kg p.o., duration not stated
Compound,Most Sensitive Cell Lines in Human Tumor Cell Panel Assay: Breast [1],Most Sensitive Cell Lines in Human Tumor Cell Panel Assay: CNS [3],IC50 [4],Most Sensitive Cell Lines in Human Tumor Cell Panel Assay: Ovarian [7],IC50 [9],also measured
CCOc1cc2c(cc1O)C(=O)CC1C2CCC2(C)C(O)CCC12 (stereo not drawn) [NSC 679431],✓,✓,4.8 µM,✓,,"Most Sensitive Cell Lines in Human Tumor Cell Panel Assay: Melanoma [2]: ✓; T/C (volume of treated tumors over volume of control tumors) [5, 10]: 0.9; Most Sensitive Cell Lines in Human Tumor Cell Panel Assay: Renal [6]: ✓"
C[C@]12CC[C@@H]3c4cc(OCC(F)(F)F)c(O)cc4C(=O)C[C@H]3[C@@H]1CC[C@@H]2O [NSC 681684],,,6 µM,,,Tumor Panel: Average log IC50(Molar) against 8 human breast cancer cell lines [1]: −5.06 log Molar; inhibition in corneal pocket assay ([8]; 225 mg/kg): 36%
COc1c(O)ccc2c1CCC1C2CCC2(C)C(O)CCC12 (stereo not drawn) [4-Methoxyestradiol],,,,,> 40 µM,
CC(=O)Nc1cc2c(cc1O)CCC1C2CCC2(C)C(O)CCC12 (stereo not drawn) [NSC 673651],,,,,,IC50 [1]: 30.9 µM; Tubulin IC50 [4]: weak
C[C@]12CC[C@@H]3c4ccc(O)cc4CC[C@H]3[C@@H]1C[C@@H](O)[C@@H]2O [Estriol],,,,,> 40 µM,
COc1ccc2c(c1OC)CCC1C2CCC2(C)C(O)CCC12 (stereo not drawn) [4-Methoxyestradiol-3-0-methyl ether],,,,,> 40 µM,
CC12CCC3c4cc(F)c(O)cc4CCC3C1CCC2O (stereo not drawn) [2-Fluoroestradiol],,,,,27 ± 6 µM,
CCOc1cc2c(cc1O)CCC1C2CCC2(C)C(O)CCC12 (stereo not drawn) [NSC 671043],✓,✓,,✓,,"IC50 [1]: 0.0316 µM; Tumor Panel: Average log IC50(Molar) against 8 human breast cancer cell lines [1]: −7.7 log Molar; T/C (volume of treated tumors over volume of control tumors) [5, 10]: 0.9"
CCOc1cc2c(cc1O)C(O)C[C@@H]1[C@@H]2CC[C@]2(C)[C@@H](O)CC[C@@H]12 (stereo partly drawn) [NSC 683688],✓,✓,,✓,,Tumor Panel: Average log IC50(Molar) against 8 human breast cancer cell lines [1]: −6.3 log Molar; Most Sensitive Cell Lines in Human Tumor Cell Panel Assay: Melanoma [2]: ✓; Most Sensitive Cell Lines in Human Tumor Cell Panel Assay: Renal [6]: ✓
CC#Cc1cc2c(cc1O)CCC1C2CCC2(C)C(O)CCC12 (stereo not drawn) [NSC 682429],✓,✓,2.2 µM,✓,,"T/C (volume of treated tumors over volume of control tumors) ([5]; 44 days at 225 mg/kg p.o.): 0.25; tumor growth inhibition, comparison in words (FIG. 4) ([5]; FIG. 4): most effective tumor inhibiting compound tested; inhibition in corneal pocket assay ([8]; 300 mg/kg): 34%"
COc1ccc2c(c1)CCC1C2CCC2(C)C(O)CCC12 (stereo not drawn) [Estradiol-3-0-methyl ether],,,,,> 40 µM,
COc1cc2c(cc1OC)C1CCC3(C)C(O)CCC3C1CC2 (stereo not drawn) [2-Methoxyestradiol-3-0-methyl ether],,,,,> 40 µM,
CC12CCC3c4cc(Br)c(O)cc4CCC3C1CCC2O (stereo not drawn) [2-Bromoestradiol],,,,,4.5 ± 0.6 µM,
CC=Cc1cc2c(cc1O)CCC1C2CCC2(C)C(O)CCC12 (stereo not drawn) [NSC 667047],✓,✓,1.2 ± 0.1 µM,✓,,IC50 [1]: 0.1 µM; Tumor Panel: Average log IC50(Molar) against 8 human breast cancer cell lines [1]: −6.9 log Molar; Most Sensitive Cell Lines in Human Tumor Cell Panel Assay: Melanoma [2]: ✓; T/C (volume of treated tumors over volume of control tumors) ([5]; 29 days at 75 mg/kg p.o.): 0.40; Most Sensitive Cell Lines in Human Tumor Cell Panel Assay: Renal [6]: ✓
COc1ccc(CCc2cc(OC)c(OC)c(OC)c2)cc1O [Dihydrocombretastatin A-4],,,,,0.63 ± 0.03 µM,
C=Cc1cc2c(cc1O)CCC1C2CCC2(C)C(O)CCC12 (stereo not drawn) [NSC 667049],✓,✓,5.2 ± 1 µM,✓,,IC50 [1]: 2.51 µM; Most Sensitive Cell Lines in Human Tumor Cell Panel Assay: Melanoma [2]: ✓; Most Sensitive Cell Lines in Human Tumor Cell Panel Assay: Renal [6]: ✓
COc1cc2c(cc1O)CCC1C2CCC2(C)C(O)C(O)CC12 (stereo not drawn) [2-Methoxyestriol],,,,,> 40 µM,
C#CC1(O)CCC2C3CCc4cc(O)c(OC)cc4C3CCC21C (stereo not drawn) [2-Methoxy-17-ethynylestradiol],,,,,> 40 µM,
CC12CCC3c4cc(OCC(F)(F)F)c(O)cc4CCC3C1CCC2O (stereo not drawn) [NSC 678473],,,1.7 µM,,,IC50 [1]: 0.794 µM; Tumor Panel: Average log IC50(Molar) against 8 human breast cancer cell lines [1]: −5.8 log Molar
